The values below are quoted from earlier work in patent US7674912B2, “Pro-drugs of N-thiazol-2-yl-benzamide derivatives” (priority 2005, dated 2010).

Read-outs that look alike come from different tables or passages of the source.

The test system of one data set is mice. The following applies: for total immobility time: mouse tail suspension test.
The test system of data set [1] is unilateral 6-OHDA (6-hydroxydopamine) lesioned mice and rats. The following applies: elicited by a subthreshold dose of levodopa, unilateral 6-OHDA lesioned mice and rats.
The subject of data set [2] is non-human primates treated with MPTP.
The test system of data set [3] is MPTP treated mice and 6-OHDA-lesioned rats.
The mark [4] stands for this setting: mice previously screened for having high immobility time.

Take `Nc1nc(NCCc2ccc(O)cc2)nc2nc(-c3ccco3)nn12` [ZM241385, 4-(2-[7-amino-2-(2-furyl)[1,2,4]triazolo[2,3-a][1,3,5]triazin-5-ylamino]-ethyl)phenol]: the immobility result in the data set on mice (setting [4]) was “reduce immobility”.

Consider `Nc1nc2c(cnn2CCc2ccccc2)c2nc(-c3ccco3)nn12` [SCH58261, 2-(2-furanyl)-7-(2-phenylethyl)-7H-pyrazolo[4,3-e][1,2,4]triazolo[1,5-c]pyrimidin-5-amine], for which, in data set [1], the contralateral rotations entry is reported as “enhance contralateral rotations”. The immobility result in the data set on mice (setting [4]) was “reduce immobility”; with mice (mice selectively bred for their helplessness) it was “reduced immobility”. In addition, in the data set with mice, the total immobility time entry is “reduced the total immobility time”.

For the compound `CCn1c(=O)c2c(nc(/C=C/c3ccc(OC)c(OC)c3)n2C)n(CC)c1=O` [KW-6002, 8-[(1E)-2-(3,4-dimethoxyphenyl)ethenyl]-1,3-diethyl-3,7-dihydro-7-methyl-1H-purine-2,6-dione], the dyskinesias entry in data set [2] (in vivo) is “without causing dyskinesias”. Besides, in data set [2] (non-human primates), the “motor impairment induced by MPTP” value is listed as “significantly improves motor impairment”. Besides, the contralateral rotations entry in data set [1] is listed as “enhance contralateral rotations”. In data set [3], the “functional loss of dopaminergic nerve terminals in the striatum” value is “prevented functional loss of dopaminergic nerve terminals in the striatum” and the “gliosis induced around degenerating neurons” value is recorded as “prevented gliosis”. In the data set with mice, the total immobility time result is “reduced the total immobility time”.
